Assay results published in patent US20250312269A1, “ADMINISTRATION OF A P[…] BY INT[…]” (RESET PHARMACEUTICALS, INC., priority 2022, published 2025).
Read-outs that look alike come from different tables or passages of the source.

Assays:
[1] = Particle size distribution (PSD) analysis by laser diffraction of feed and micronised compound; format: physicochemical; conditions: primary pressure of 4 bar, lens R1/R3/R5 per sample
Protocol: In order to provide a small and homogeneous particle size of psychedelic compound in the final suspensions, psilocybin and psilocin were micronised before use. Micronisation was performed by wet bead milling using decafluoropentane as the antisolvent. In a glass vial, 200 mg psychedelic compound and 2 g of 1 mm silica beads were weighed. 3 mL of the antisolvent was added for psilocybin and 2 mL for psilocin. The samples were vortexed for approximately 15 seconds then milled at 530 rpm for 60 minutes.
(§1) The micronised sample was then separated from the silica beads and transferred to a petri dish and left at room temperature to allow for evaporation of the solvent overnight (approximately 18 hours). The dried sample was then collected and characterised by PSD and XRPD.
Particle size analysis was carried out, in single analysis, by laser diffraction using a Sympatec Helos particle size analyser, equipped with a RODOS dry dispersion unit and ASPIROS feeder unit. The lens and primary pressures were varied for each compound tested.

[2] = cited from earlier work
[3] = Solubility assessment in excipients / vehicles
[4] = IV administration; cited from earlier work
[5] = XRPD analysis after micronisation; format: physicochemical; conditions: wet bead milling in decafluoropentane
Protocol: as §1
X-ray powder diffraction (XRPD) analysis was carried out using a Bruker D2 Phaser powder diffractometer equipped with a LynxEye detector. The specimens were located at the centre of a silicon sample holder within a 5 mm pocket. The samples were continuously spun during data collection and scanned using a step size of 0.02° two theta (28) between […] to 60° two theta, the detailed parameters are summarised in Table 11. The data was processed using Diffrac Plus EVA software (Version 3.1).

[6] = One-compartment IM PK model fitted to published DMT IM data; parameters: species or system human; conditions: estimate (95% CI)
From the text: (§2) DMT IM data was digitised from Kaplan et al. “Blood and urine levels of N,N-dimethyltryptamine following administration of psychoactive dosages to human subjects” Psychopharmacologia 38, 239-245 (1974). A one compartment model was used with linear absorption and clearance to describe the human IM data from Kaplan et al. 1974, and is shown schematically in FIG. 3. Mathematically, this model is a series of two linked ordinary differential equations (ODE's) given in equations (7)-(8).
Constant ka is the absorption rate constant (units 1/min), Cl is the clearance (units mL/min), Vc is the volume of distribution of the central compartment (units mL).
The model gives a satisfactory fit of the absorption phase, seen in FIG. 5, where the line is the simulate PK model and the points are the raw data. The fitted PK parameters can be found in Table 3.

[7] = Non-compartmental analysis of DMT IM bioavailability from digitised published data; format: in vivo; conditions: human, blood, intramuscular, 0.7 mg/kg, 0.7 mg/kg IM
From the text: as §2
The points are the mean data, and the error bars are plus and minus the SEM. Non-compartmental analysis (NCA) was run to calculate the dose normalised AUC at four dose levels. The bioavailability of the IM data was then calculated, equation (3), at all four dose levels seen in Table 2, due to the IM dose being 0.7 mg/kg the 0.4 mg/kg bioavailability values were taken and therefore bioavailability was assumed to be one for the rest of the modelling.

[8] = Human IM simulations of psilocin exposure, one (native) absorption rate; conditions: 'native' absorption rate taken from DMT IM model
Protocol: The model that was used is shown schematically in FIG. 6, mathematically the analytical solution is shown in equations (9)-(14).
Using the absorption rate from modelling the IM DMT data and the human systemic psilocin PK parameters, human IM simulations were run over 1-12 mg doses and the simulated PK profiles can be seen in FIG. 8. […] It was therefore investigated which dose produces the therapeutic plasma level (5 ng/mL) quickly, this can be seen in Table 4.

[9] = Two-compartment IV bolus PK model fitted to published psilocin plasma data after psilocybin IV; parameters: species or system human; conditions: estimate (95% CI)
Protocol: All analysis was performed using the software R and RStudio, with models being defined using analytical and ODE solutions.
Systemic PK parameters were derived for published human bolus psilocybin IV data. Human IV PK data for psilocin after psilocybin was administered was taken from Hasler et al. “Determination of psilocin and 4-hydroxyindole-3-acetic acid in plasma by HPLC-ECD and pharmacokinetic profiles of oral and intravenous psilocybin in man”. Pharm Acta Helv. 1997 June; 72(3):175-84. Model selection was performed by assessing visual fit to data and the respective model AIC's of a one compartment and two compartment IV PK model. These systemic human PK parameters were then used for human intramuscular injection simulations by simulating the PK profiles over a range of doses and absorption rates.
It is assumed that the generation of psilocin is instantaneous and complete once psilocybin is absorbed.
An IV two compartment model best described the IV data from FIG. 2. A two-compartment model gave a good description of the raw data capturing the Cmax and terminal phase well, FIG. 3. The systemic PK parameters can be seen in Table 1 and there are low errors in the parameter estimates.

Question: Which results are given for `CN(C)CCc1c[nH]c2cccc(OP(=O)(O)O)c12` [Micronised psilocybin, psilocybin]?
Answer: D10 [1]: 0.45 μm; D50 [1]: 1.20 μm; D90 [1]: 3.13 μm

Question: Which duration ([2]; oral dosing) does the source give for `CN(C)CCc1c[nH]c2cccc(OP(=O)(O)O)c12` [psilocybin, [3-(2-dimethylaminoethyl)-1H-indol-4-yl]dihydrogen phosphate] here?
Answer: 4 to 8 h

Question: And the “maximum effect (time)” value ([2]; oral dosing)?
Answer: 60 to 90 min

Question: And the onset of action ([2]; oral dosing)?
Answer: 20 to 40 min

Question: What about the bioavailability ([2]; reported, oral dosing context) of the same molecule?
Answer: approximately 50%

Question: What about the “solubility in all the excipients tested” value ([3]; non-micronised, 20 excipients) of the same molecule?
Answer: poor solubility

Question: What about the “duration of the psychological effects” value [4] of the same molecule?
Answer: 20 minutes

Question: What about the onset of action [4] of the same molecule?
Answer: 1 to 2 min

Question: What about the “chemical degradation upon micronisation (XRPD)” value [5] of the same molecule?
Answer: no significant chemical degradation

Question: With `CN(C)CCc1c[nH]c2ccccc12` [DMT, N,N-dimethyltryptamine] as the molecule, how does the ka ([6]; absorption rate constant) read?
Answer: 0.153 (−0.311, 0.616) ^ /min

Question: And the CI ([6]; clearance)?
Answer: 21900 (4690, 39100) ml/min

Question: What about the V ([6]; 0.7 mg/kg IM) of the same molecule?
Answer: 353000 (−397000, 1100000) ml

Question: What about the bioavailability ([7]; AUC of IV infusion dose 0.05 mg/kg) of the same molecule?
Answer: 46.3%

Question: And the bioavailability ([7]; AUC of IV infusion dose 0.1 mg/kg)?
Answer: 77.8%

Question: And the bioavailability ([7]; AUC of IV infusion dose 0.2 mg/kg)?
Answer: 132%

Question: And the bioavailability ([7]; AUC of IV infusion dose 0.4 mg/kg)?
Answer: 162%

Question: With `CN(C)CCc1c[nH]c2cccc(O)c12` [Feed psilocin, psilocin] as the molecule, how does the D10 [1] read?
Answer: 20.36 μm

Question: And the D50 [1]?
Answer: 106.05 μm

Question: What about the D90 [1] of the same molecule?
Answer: 232.08 μm

Question: What does the source list for `CN(C)CCc1c[nH]c2cccc(O)c12` [psilocin, 4-hydroxy-N,N-dimethyltryptamine]?
Answer: absorption half-life [8]: 4.53 min; solubility versus pH ([3]; initial solution trials in aqueous vehicles): higher solubility at acidic pH; solubility in DMSO and NMP ([3]; non-micronised): good solubility; chemical degradation upon micronisation (XRPD) [5]: no significant chemical degradation; CI ([9]; clearance, fit to 1 mg psilocybin IV data): 3810 (3340, 4290) ml/min; k21 ([9]; distribution rate from peripheral compartment): 0.0489 (0.0388, 0.0591) /min; k12 ([9]; distribution rate to peripheral compartment): 0.176 (0.144, 0.208) /min; V ([9]; volume of distribution of central compartment, fit to 1 mg psilocybin IV data): 88600 (77300, 99900) ml

Question: What does the source list for `CN(C)CCc1c[nH]c2cccc(OP(=O)(O)O)c12` [Feed psilocybin, psilocybin]?
Answer: D10 [1]: 1.16 μm; D50 [1]: 5.46 μm; D90 [1]: 16.32 μm

Question: For `CN(C)CCc1c[nH]c2cccc(O)c12` [Micronised psilocin, psilocin], which D10 [1] is on record?
Answer: 0.44 μm

Question: What about the D50 [1] of the same molecule?
Answer: 1.07 μm

Question: And the D90 [1]?
Answer: 2.27 μm
